From BindingDB's records for doi:10.1016/j.cbi.2005.11.002 (Laboratoire De Pharmacologie-Toxicologie Inra, 2006)

Molecular target: ATP-binding cassette sub-family C member 2 (Homo sapiens, UniProt Q92887)
Assay: TP_TRANSPORTER: inhibition of ATPase activity in Sf9 cells (membrane vesicles)

ATP-binding cassette sub-family C member 2, sequence (Q92887 whole entry): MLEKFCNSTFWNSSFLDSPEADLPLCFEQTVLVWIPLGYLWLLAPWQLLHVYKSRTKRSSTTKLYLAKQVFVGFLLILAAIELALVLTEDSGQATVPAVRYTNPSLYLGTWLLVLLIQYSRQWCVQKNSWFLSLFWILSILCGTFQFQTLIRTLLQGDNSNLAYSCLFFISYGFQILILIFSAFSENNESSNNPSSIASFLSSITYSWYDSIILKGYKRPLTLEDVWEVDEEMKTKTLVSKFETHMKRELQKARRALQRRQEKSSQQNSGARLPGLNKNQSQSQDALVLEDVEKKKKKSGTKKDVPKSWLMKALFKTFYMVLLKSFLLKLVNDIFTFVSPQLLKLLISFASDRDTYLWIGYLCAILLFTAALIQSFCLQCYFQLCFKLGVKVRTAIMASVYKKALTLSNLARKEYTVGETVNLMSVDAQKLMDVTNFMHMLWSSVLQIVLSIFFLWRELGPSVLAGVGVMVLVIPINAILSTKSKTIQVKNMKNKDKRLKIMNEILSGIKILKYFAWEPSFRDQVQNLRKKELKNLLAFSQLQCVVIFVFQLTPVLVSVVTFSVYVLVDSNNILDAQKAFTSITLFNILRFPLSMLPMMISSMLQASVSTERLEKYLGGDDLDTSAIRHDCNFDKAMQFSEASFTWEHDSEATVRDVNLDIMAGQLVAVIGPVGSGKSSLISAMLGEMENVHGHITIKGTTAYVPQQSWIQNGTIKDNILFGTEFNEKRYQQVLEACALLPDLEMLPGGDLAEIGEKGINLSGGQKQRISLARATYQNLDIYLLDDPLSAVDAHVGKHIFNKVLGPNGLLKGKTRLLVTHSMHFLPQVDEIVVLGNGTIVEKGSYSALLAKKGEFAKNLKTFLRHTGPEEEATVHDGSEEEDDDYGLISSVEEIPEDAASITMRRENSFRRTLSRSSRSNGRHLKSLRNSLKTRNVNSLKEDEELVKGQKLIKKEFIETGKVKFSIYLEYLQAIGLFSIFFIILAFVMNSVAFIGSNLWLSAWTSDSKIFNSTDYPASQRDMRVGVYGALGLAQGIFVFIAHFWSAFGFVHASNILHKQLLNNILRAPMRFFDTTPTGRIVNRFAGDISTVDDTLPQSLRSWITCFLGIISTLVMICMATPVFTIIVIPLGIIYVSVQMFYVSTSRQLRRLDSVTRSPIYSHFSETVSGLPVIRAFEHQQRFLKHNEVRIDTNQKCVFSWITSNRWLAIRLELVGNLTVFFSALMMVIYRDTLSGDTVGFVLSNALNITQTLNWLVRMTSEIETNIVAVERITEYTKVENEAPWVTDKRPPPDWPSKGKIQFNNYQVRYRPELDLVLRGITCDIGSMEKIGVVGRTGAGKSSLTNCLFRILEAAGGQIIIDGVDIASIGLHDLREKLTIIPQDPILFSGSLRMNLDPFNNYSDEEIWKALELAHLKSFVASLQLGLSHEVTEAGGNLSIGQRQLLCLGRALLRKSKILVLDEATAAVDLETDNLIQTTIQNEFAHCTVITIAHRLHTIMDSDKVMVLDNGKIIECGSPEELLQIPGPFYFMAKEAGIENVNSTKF

IC50: 18 µM
SMILES: CC[C@H](C)[C@H]1O[C@]2(CC[C@@H]1C)C[C@@H]1C[C@@H](C/C=C(\C)[C@@H](O[C@H]3C[C@H](OC)[C@@H](O[C@H]4C[C@H](OC)[C@@H](O)[C@H](C)O4)[C@H](C)O3)[C@@H](C)/C=C/C=C3\CO[C@@H]4[C@H](O)C(C)=C[C@@H](C(=O)O1)[C@]34O)O2 [ABAMECTIN]
